Assay results as given in US20040018500A1, “Methods and systems for analyzing complex biological systems” (priority 2001, published 2004).

Columns and labels:
[1] = system: Saccharomyces cerevisiae wild type strain BY4743; experiment: AF1 combined gene expression and metabolite data mapped to KEGG reactions and pathways; assay type: cell-based
Text: In AF1, two different technologies were utilized: gene expression analysis (for examination of mRNA expression) and metabolite analysis. […] As noted previously, existing metabolic databases may be helpful in practicing the methods and systems of the present invention, but many databases include limitations that make their use in data analysis and pathway mapping less than straightforward. […] This caveat to KEGG makes it difficult to pinpoint the correct pathway when attempting to link a gene to a specific pathway. […] The pathway score indicates how meaningful the mapping is, or how likely it is to be correctly indicative of the pathway involved in the perturbation under examination. The method provides a pathway score based on perturbation levels of genes and/or compounds and the information content of each gene and/or compound in the pathway, i.e., a pathway score indicates the extent to which other pathways are mapped to a gene/compound. For example, imagine that two genes are perturbed in a particular experiment. One gene maps to only one pathway, giving a high degree of probability that the perturbed pathway is the one identified in the mapping. The second gene maps to three pathways. In the later example, there is only one-third the probability that the pathway identified in the mapping is the one perturbed. The present invention provides a method for calculating the pathway scores, so that more weight is given to a score of a gene or compound that maps to only one pathway than to a score of a gene or compound that maps to multiple pathways. […] Where n=the total number of genes in the pathway; ipath—count=the number of pathways containing a gene; and j=the number of genes in the pathway that are perturbed. Another factor to be considered when weighting a pathway score is the degree of perturbation. Degree of perturbation can be calculated, for example, based on a number of standard deviations from a norm, and included in an equation such as the one shown above, so that not only the number of pathways is taken into account, but also accounts for the amount of gene transcript or compound present as compared to a control. Compounds were also linked to pathways using the KEGG database. […] Of the 676 compounds under consideration, 77 were detected in the AF1 samples. […] The multiple mapping feature of KEGG makes it difficult to pinpoint the correct pathway when trying to link a compound to a specific pathway. […] A pathway score calculation is applied to the compounds to account for both information content (number of pathways a compound maps to) and perturbation level. The data were then combined to determine the number of reactions showing an enzyme and at least one compound perturbed, and to determine the number of pathways having at least one enzyme and one perturbed compound perturbed. The results of the analysis are represented in Tables 16 and 17, and were difficult to interpret, illustrating that the ability to draw conclusions from compound mapping to pathways is limited when absent additional data.

[2] = system: Saccharomyces cerevisiae wild type strain BY4743; experiment: AF1 metabolite analysis (GC-MS, LC-MS) of yeast treated with antifungal drugs; assay type: cell-based

SMILES: OC(Cn1cncn1)(Cn1cncn1)c1ccc(F)cc1F [Fluconazole]
- Number of Reactions Having an Enzyme and at Least One Compound Perturbed [1]: 2
- Fold Change of alanine ([2]; GC): 0.3084
- Fold Change of asparagine ([2]; GC): 0.3999
- Fold Change of aspartic acid ([2]; GC): 0.4337
- Fold Change of campesterol ([2]; GC): 0
- Fold Change of desmosterol ([2]; GC): 0
- Fold Change of disaccaride1 ([2]; GC): 0.3883
- Fold Change of disaccaride2 ([2]; GC): 0.1517
- Fold Change of disaccaride3 ([2]; GC): 0.5803
- Fold Change of ergosterol ([2]; GC): 0.948
- Fold Change of fucosterol ([2]; GC): 6.665
- Fold Change of glutamine ([2]; GC): 0.5242
- Fold Change of glycanopyrose ([2]; GC): 1.202
- Fold Change of glycerol ([2]; GC): 0.2187
- Fold Change of glycine ([2]; GC): −0.1037
- Fold Change of hexadecanoic acid ([2]; GC): 0.1343
- Fold Change of iso citric acid ([2]; GC): 0.3923
- Fold Change of isoleucine ([2]; GC): 0.391
- Fold Change of lanosterol ([2]; GC): 8.462
- Fold Change of leucine ([2]; GC): 0.3387
- Fold Change of lysine ([2]; GC): 0.3412
- Fold Change of malic acid ([2]; GC): 0.3975
- Fold Change of mevalonic acid lactone ([2]; GC): 0.2333
- Fold Change of octadecanoic acid ([2]; GC): 0.082
- Fold Change of oleic acid ([2]; GC): −0.3073
- Fold Change of ornithine2 ([2]; GC): 0.4473
- Fold Change of ornithine3 ([2]; GC): 0.2647
- Fold Change of palmiteliadic acid ([2]; GC): −0.08867
- Fold Change of phenylalanine ([2]; GC): 0.2774
- Fold Change of phosphate ([2]; GC): −0.508
- Fold Change of pyrimidine ([2]; GC): 0.2457
- Fold Change of abscisic acid ([2]; LC): 0
- Fold Change of adenosine ([2]; LC): 0
- Fold Change of glutamine/lysine ([2]; LC): 0.2242
- Fold Change of guanosine ([2]; LC): −0.9981
- Fold Change of 2-ketobutyric acid ([2]; nLC): −0.9992
- Fold Change of 2-ketoglutaric ([2]; nLC): −0.9995
- Fold Change of 3-indolylacetonitri ([2]; nLC): −0.9998
- Fold Change of 4-methylcatechol ([2]; nLC): 0
- Fold Change of 4aminobutyrate/dimg ([2]; nLC): 0.1384
- Fold Change of 5hydroxyLtryptophan ([2]; nLC): 0
- Fold Change of 6-benzylaminopurine ([2]; nLC): 0
- Fold Change of DLaminoadipic acid ([2]; nLC): 0.443
- Fold Change of NacetylDglucosamine ([2]; nLC): 0
- Fold Change of NacetylLglutamate ([2]; nLC): 0.1369
- Fold Change of NacetylLornithine ([2]; nLC): 0
- Fold Change of abscisic acid ([2]; nLC): 0
- Fold Change of aconitic acid ([2]; nLC): 0.6483
- Fold Change of adenine ([2]; nLC): 0
- Fold Change of adenosine ([2]; nLC): 0
- Fold Change of alanine ([2]; nLC): 0.399
- Fold Change of allantoic acid ([2]; nLC): 0.2392
- Fold Change of allantoin ([2]; nLC): 0.3942
- Fold Change of anthranilic acid ([2]; nLC): 0
- Fold Change of arginine ([2]; nLC): 0.6484
- Fold Change of argininosuccinate ([2]; nLC): 0
- Fold Change of asparagine ([2]; nLC): 0.3545
- Fold Change of aspartic ([2]; nLC): 0.4993
- Fold Change of benzoic acid ([2]; nLC): 0
- Fold Change of biotin ([2]; nLC): 0.3455
- Fold Change of caffeic acid ([2]; nLC): −0.4711
- Fold Change of catechol ([2]; nLC): 0
- Fold Change of cinnamic acid ([2]; nLC): 0
- Fold Change of citricanoic/itaconi ([2]; nLC): 0
- Fold Change of citrulline ([2]; nLC): 0
- Fold Change of coumaric acid ([2]; nLC): 0
- Fold Change of cytidine ([2]; nLC): −0.7969
- Fold Change of cytosine ([2]; nLC): 0
- Fold Change of decanoic acid ([2]; nLC): 0.1846
- Fold Change of diaminopimelic acid ([2]; nLC): 0
- Fold Change of dihydrofolic acid ([2]; nLC): 0
- Fold Change of estrone ([2]; nLC): 0
- Fold Change of farnesol ([2]; nLC): 0
- Fold Change of folic acid ([2]; nLC): 0
- Fold Change of fumaric/3m2oxobutan ([2]; nLC): 0.6009
- Fold Change of gallic acid ([2]; nLC): 0.5071
- Fold Change of gibberellic ([2]; nLC): 0
- Fold Change of giutamine/lysine ([2]; nLC): 0.3309
- Fold Change of glucosamine6PO4 ([2]; nLC): −0.9951
- Fold Change of glutamic/acetylseri ([2]; nLC): 0.3842
- Fold Change of guanine ([2]; nLC): 0
- Fold Change of guanosine ([2]; nLC): −0.993
- Fold Change of histidine ([2]; nLC): 0
- Fold Change of homogentisic/uric ([2]; nLC): 0
- Fold Change of hydrocortisone ([2]; nLC): 0
- Fold Change of indole3pyruvic acid ([2]; nLC): 0
- Fold Change of inostol/glucos/sorb ([2]; nLC): −0.4744
- Fold Change of isocitric/citric/qu ([2]; nLC): 1.457
- Fold Change of jasmonic acid ([2]; nLC): 0
- Fold Change of kinetin ([2]; nLC): 0
- Fold Change of lactic acid ([2]; nLC): −0.0439
- Fold Change of lauric acid ([2]; nLC): 0.3906
- Fold Change of leucine/isoleucine/ ([2]; nLC): 0.3306
- Fold Change of luteolin ([2]; nLC): 0
- Fold Change of malic acid ([2]; nLC): 0.4366
- Fold Change of malonic acid ([2]; nLC): 0
- Fold Change of menthol* ([2]; nLC): 0.04758
- Fold Change of methionine ([2]; nLC): 0
- Fold Change of nicotinic acid ([2]; nLC): 2.443
- Fold Change of nopaline ([2]; nLC): 0.3432
- Fold Change of oleic acid ([2]; nLC): −0.01684
- Fold Change of ornithine ([2]; nLC): 0.3508
- Fold Change of orotic acid ([2]; nLC): 0
- Fold Change of palmitic acid ([2]; nLC): −0.0233
- Fold Change of phenylalanine ([2]; nLC): 0.1527
- Fold Change of phenylpyruvic acid ([2]; nLC): 0
- Fold Change of phosphoenolpyruvate ([2]; nLC): 0
- Fold Change of pinitol ([2]; nLC): 0
- Fold Change of pipecolic acid ([2]; nLC): 0.2901
- Fold Change of porphobilinogen ([2]; nLC): 0
- Fold Change of proline ([2]; nLC): 0.4164
- Fold Change of pyridoxine ([2]; nLC): −0.04201
- Fold Change of 4-aminobenzoic acid ([2]; pLC): 0
- Fold Change of 4-methylcatechol ([2]; pLC): 0
- Fold Change of 4ambutyrate/dimglyc ([2]; pLC): −0.4383
- Fold Change of 5hydroxyLtryptophan ([2]; pLC): 0
- Fold Change of 6benzylaminopurine ([2]; pLC): 0
- Fold Change of DL-aminoadipic acid ([2]; pLC): 0.1155
- Fold Change of NacetylDglucosamine ([2]; pLC): 0
- Fold Change of NacetylLglutamate ([2]; pLC): 0
- Fold Change of NacetylLornithine ([2]; pLC): 0.1584
- Fold Change of adenine ([2]; pLC): −0.09439
- Fold Change of alanine/sarcosine ([2]; pLC): 0.1269
- Fold Change of allantoic acid ([2]; pLC): 0
- Fold Change of anthranilic acid ([2]; pLC): 0
- Fold Change of arginine ([2]; pLC): 0.1179
- Fold Change of argininosuccinate ([2]; pLC): 0
- Fold Change of asparagine ([2]; pLC): 0.3192
- Fold Change of aspartic acid ([2]; pLC): 0.214
- Fold Change of biotin ([2]; pLC): 0
- Fold Change of caffeine ([2]; pLC): 0
- Fold Change of citric acid TME ([2]; pLC): 0
- Fold Change of citrulline ([2]; pLC): 0.08252
- Fold Change of cytidine ([2]; pLC): 0
- Fold Change of cytosine ([2]; pLC): 0
- Fold Change of diaminopimelic acid ([2]; pLC): 0
- Fold Change of dihydrofolic acid ([2]; pLC): 0
- Fold Change of dipicolinic acid ([2]; pLC): 0
- Fold Change of folic acid ([2]; pLC): 0
- Fold Change of glucosamine ([2]; pLC): 0
- Fold Change of glucosamine6PO4 ([2]; pLC): 0
- Fold Change of glutamate ([2]; pLC): −0.06179
- Fold Change of glutathione ([2]; pLC): −0.05832
- Fold Change of histidine ([2]; pLC): 0
- Fold Change of hydrocortisone ([2]; pLC): 0
- Fold Change of hypoxanthine ([2]; pLC): 0.1298
- Fold Change of itaconic acid dimes ([2]; pLC): 0
- Fold Change of kinetin ([2]; pLC): 0
- Fold Change of leucine/isoleucine/ ([2]; pLC): 0.1638
- Fold Change of luteolin ([2]; pLC): 0
- Fold Change of mannitol ([2]; pLC): 0.152
- Fold Change of methionine ([2]; pLC): −0.2906
- Fold Change of mevalonic lactone ([2]; pLC): −0.5175
- Fold Change of niacinamide ([2]; pLC): 0
- Fold Change of nicotinic acid ([2]; pLC): −0.7982
- Fold Change of nopaline ([2]; pLC): 0
- Fold Change of ornithine ([2]; pLC): 0.4775
- Fold Change of phenylalanine ([2]; pLC): −0.1809
- Fold Change of phosphoenolpyruvate ([2]; pLC): 0
- Fold Change of pipecolic acid ([2]; pLC): 0.2583
- Fold Change of progesterone ([2]; pLC): 0
- Fold Change of proline ([2]; pLC): 0.2075
- Fold Change of pyridoxine ([2]; pLC): −0.3831
